The values that follow come from ChEMBL document CHEMBL1154324, “Activity of mangosteen xanthones and teleocidin a-2 in death receptor expression enhancement and tumor necrosis factor related apoptosis-inducing ligand assays” (J Nat Prod, 2010).

The assay has as its target Tumor necrosis factor receptor superfamily member 10B (Homo sapiens) (UniProt O14763). In words: Induction of DR5 promoter activity in SacI gene expressing human DLD1 cells at 10 to 30 uM after 24 hrs by luciferase reporter gene assay relative to control. The following applies: DLD-1. Type of assay: cell-based.

Chain of Tumor necrosis factor receptor superfamily member 10B (Homo sapiens) (O14763 whole entry): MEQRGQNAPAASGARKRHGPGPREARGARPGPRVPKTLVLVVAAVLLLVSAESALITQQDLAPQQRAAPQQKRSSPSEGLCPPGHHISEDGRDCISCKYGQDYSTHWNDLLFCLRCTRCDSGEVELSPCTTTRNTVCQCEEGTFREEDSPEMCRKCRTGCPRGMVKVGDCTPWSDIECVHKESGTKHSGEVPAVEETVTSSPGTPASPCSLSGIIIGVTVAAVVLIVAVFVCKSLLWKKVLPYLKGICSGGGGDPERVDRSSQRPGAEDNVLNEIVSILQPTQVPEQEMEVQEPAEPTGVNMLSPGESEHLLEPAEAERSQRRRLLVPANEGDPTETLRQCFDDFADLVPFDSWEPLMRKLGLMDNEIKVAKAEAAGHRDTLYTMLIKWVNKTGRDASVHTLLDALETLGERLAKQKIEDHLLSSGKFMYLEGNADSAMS

In the case of `COc1c(O)cc2oc3cc4c(c(O)c3c(=O)c2c1CC=C(C)C)C=CC(C)(C)O4`, the fold change (FC) is 4.
With `COc1c(O)cc2oc3cc(O)c(CC=C(C)C)c(O)c3c(=O)c2c1CC=C(C)C` the figure was 3.8; with `CC(C)=CCc1c(O)c(CC=C(C)C)c2oc3c(O)ccc(O)c3c(=O)c2c1O`, 3.1.
